Measured values reported in patent US10947188B2, “Small molecule ferroptosis inducers” (THE TRUSTEES OF COLUMBIA UNIVERSITY IN THE CITY OF NEW YORK, priority 2016, dated 2021).

Columns and labels:
HT-1080 = experiment: Modulatory profiling: Alamar Blue viability, lethal compound cotreated with death modulator (EC50, AUC); assay type: cell-based; set-up: AUC, modulator HT.3MA / AUC, modulator HT.ALLN / AUC HT.ATA / AUC HT.ActD / AUC HT.BHA / AUC HT.BHT / AUC HT.BocD / AUC HT.CHX / AUC HT.Co2+ / AUC HT.DPQ / AUC HT.EGTA / AUC HT.Lmim / AUC HT.NAD+ / AUC HT.Nec-1 / AUC HT.SP600125 / AUC HT.TLCK / AUC HT.U0126: unit not given beside the values; conditions: for AUC HT.ATA: HT-1080, modulator ATA; for AUC HT.ActD: HT-1080, modulator ActD; for AUC HT.BHA: HT-1080, modulator BHA; for AUC HT.BHT: HT-1080, modulator BHT; for AUC HT.BocD: HT-1080, modulator BocD; for AUC HT.CHX: HT-1080, modulator CHX; for AUC HT.Co2+: HT-1080, modulator Co2+; for AUC HT.CspA: HT-1080, modulator CspA; for AUC HT.DPQ: HT-1080, modulator DPQ; for AUC HT.EGTA: HT-1080, modulator EGTA; for AUC HT.Gd3+: HT-1080, modulator Gd3+; for AUC HT.LNAME: HT-1080, modulator LNAME; for AUC HT.Lmim: HT-1080, modulator Lmim; for AUC HT.NAD+: HT-1080, modulator NAD+; for AUC HT.NMMA: HT-1080, modulator NMMA; for HT.atoc (AUC) / HT.bCarotene (AUC) / HT.deferox (AUC) / HT.digoxin (AUC) / HT.trolox (AUC) / HT.zVAD (AUC): HT-1080; for HT.atoc (AUC): modulator atoc; for HT.bCarotene (AUC): modulator bCarotene; for HT.deferox (AUC): modulator deferox; for HT.digoxin (AUC): modulator digoxin; for HT.trolox (AUC): modulator trolox; for HT.zVAD (AUC): modulator zVAD; for AUC, modulator HT.3MA / AUC, modulator HT.ALLN: HT-1080 cells, modulatory profile value (AUC); for AUC, modulator HT.3MA: lethal compound cotreated with modulator 3MA; for AUC, modulator HT.ALLN: lethal compound cotreated with modulator ALLN; as to AUC HT.BHA: reference of the scale not given here; as to AUC HT.EGTA: reference of the scale not given here
BJeLR = experiment: as above; assay type: cell-based, human; set-up: AUC, modulator BJ.Gd3+ / AUC, modulator BJ.LNAME / AUC, modulator BJ.Lmin / AUC, modulator BJ.3MA / AUC, modulator BJ.ALLN / AUC, modulator BJ.Boc D / AUC, modulator BJ.CHX / AUC, modulator BJ.Co2+ / AUC, modulator BJ.Nec-1 / AUC, modulator BJ.Pepstatin / AUC, modulator BJ.TLCK / AUC, modulator BJ.atoc / AUC, modulator BJ.trolox / AUC, modulator BJ.zVAD: unit not given beside the values; conditions: BJeLR cells, modulatory profile value (AUC); for AUC, modulator BJ.3MA: lethal compound cotreated with modulator 3MA; for AUC, modulator BJ.ALLN: lethal compound cotreated with modulator ALLN; for AUC, modulator BJ.Boc D: lethal compound cotreated with modulator Boc D; for AUC, modulator BJ.CHX: lethal compound cotreated with modulator CHX; for AUC, modulator BJ.Co2+: lethal compound cotreated with modulator Co2+; for AUC, modulator BJ.DPQ: lethal compound cotreated with modulator DPQ; for AUC, modulator BJ.Gd3+: lethal compound cotreated with modulator Gd3+; for AUC, modulator BJ.LNAME: lethal compound cotreated with modulator LNAME; for AUC, modulator BJ.Lmin/NAD+: lethal compound cotreated with modulator Lmin/NAD+; for AUC, modulator BJ.Lmin: lethal compound cotreated with modulator Lmin; for AUC, modulator BJ.NAD+: lethal compound cotreated with modulator NAD+; for AUC, modulator BJ.NMMA: lethal compound cotreated with modulator NMMA; for AUC, modulator BJ.Nec-1: lethal compound cotreated with modulator Nec-1; for AUC, modulator BJ.Pepstatin: lethal compound cotreated with modulator Pepstatin; for AUC, modulator BJ.TLCK: lethal compound cotreated with modulator TLCK; for AUC, modulator BJ.atoc: lethal compound cotreated with modulator atoc; for AUC, modulator BJ.trolox: lethal compound cotreated with modulator trolox; for AUC, modulator BJ.zVAD: lethal compound cotreated with modulator zVAD; as to AUC, modulator BJ.3MA: reference of the scale not given here; as to AUC, modulator BJ.ALLN: reference of the scale not given here; as to AUC, modulator BJ.Boc D: reference of the scale not given here; as to AUC, modulator BJ.CHX: reference of the scale not given here; as to AUC, modulator BJ.Co2+: reference of the scale not given here; as to AUC, modulator BJ.DPQ: reference of the scale not given here; as to AUC, modulator BJ.Gd3+: reference of the scale not given here; as to AUC, modulator BJ.LNAME: reference of the scale not given here; as to AUC, modulator BJ.NAD+: reference of the scale not given here; as to AUC, modulator BJ.NMMA: reference of the scale not given here; as to AUC, modulator BJ.Nec-1: reference of the scale not given here; as to AUC, modulator BJ.Pepstatin: reference of the scale not given here; as to AUC, modulator BJ.TLCK: reference of the scale not given here

COc1cccc(-n2nnnc2S(C)(=O)=O)c1 [CIL16]
AUC HT.ATA (HT-1080): 0.003965 | AUC HT.ActD (HT-1080): 0.01875 | AUC HT.BHA (HT-1080): −0.05937 | AUC HT.BHT (HT-1080): −0.1721 | AUC HT.BocD (HT-1080): 0.1414 | AUC HT.CHX (HT-1080): 0.08543 | AUC HT.Co2+ (HT-1080): 0.155 | AUC HT.CspA (HT-1080): 0.008389 | AUC HT.DPQ (HT-1080): −0.02205 | AUC HT.EGTA (HT-1080): −0.0002723 | AUC HT.Gd3+ (HT-1080): −0.0407 | AUC HT.LNAME (HT-1080): 0.01974 | AUC HT.Lmim (HT-1080): −0.05546 | AUC HT.NAD+ (HT-1080): 0.05126 | AUC HT.NMMA (HT-1080): −0.03154 | HT.atoc (AUC) (HT-1080): 0.1025 | HT.bCarotene (AUC) (HT-1080): −0.01322 | HT.deferox (AUC) (HT-1080): 0.05919 | HT.digoxin (AUC) (HT-1080): −0.01884 | HT.trolox (AUC) (HT-1080): −0.01524 | HT.zVAD (AUC) (HT-1080): 0.005482 | AUC, modulator HT.3MA (HT-1080): 0.02993 | AUC, modulator HT.ALLN (HT-1080): −0.03286 | AUC, modulator BJ.3MA (BJeLR): 0.05064 | AUC, modulator BJ.ALLN (BJeLR): −0.03491 | AUC, modulator BJ.Boc D (BJeLR): −0.04692 | AUC, modulator BJ.CHX (BJeLR): 0.01221 | AUC, modulator BJ.Co2+ (BJeLR): 0.07207 | AUC, modulator BJ.DPQ (BJeLR): −0.01732 | AUC, modulator BJ.Gd3+ (BJeLR): −0.02506 | AUC, modulator BJ.LNAME (BJeLR): −0.01278 | AUC, modulator BJ.Lmin/NAD+ (BJeLR): −0.05229 | AUC, modulator BJ.Lmin (BJeLR): −0.02238 | AUC, modulator BJ.NAD+ (BJeLR): −0.02177 | AUC, modulator BJ.NMMA (BJeLR): −0.01938 | AUC, modulator BJ.Nec-1 (BJeLR): 0.06903 | AUC, modulator BJ.Pepstatin (BJeLR): 0.02481 | AUC, modulator BJ.TLCK (BJeLR): −0.02516 | AUC, modulator BJ.atoc (BJeLR): −0.03351 | AUC, modulator BJ.trolox (BJeLR): 0.003689 | AUC, modulator BJ.zVAD (BJeLR): −0.006166

CC[C@]1(O)C[C@H]2CN(CCc3c([nH]c4ccccc34)[C@@](C(=O)OC)(c3cc4c(cc3OC)N(C=O)[C@H]3[C@@](O)(C(=O)OC)[C@H](OC(C)=O)[C@]5(CC)C=CCN6CC[C@]43[C@@H]65)C2)C1 [Vincristine]
AUC HT.ATA (HT-1080): 0.1304 | AUC HT.ActD (HT-1080): 0.05976 | AUC HT.BHA (HT-1080): −0.004754 | AUC HT.BHT (HT-1080): −0.01568 | AUC HT.BocD (HT-1080): 0.1401 | AUC HT.CHX (HT-1080): 0.08269 | AUC HT.Co2+ (HT-1080): 0.217 | AUC HT.CspA (HT-1080): −0.1876 | AUC HT.DPQ (HT-1080): 0.01267 | AUC HT.EGTA (HT-1080): 0.009231 | AUC HT.Gd3+ (HT-1080): −0.0009641 | AUC HT.LNAME (HT-1080): 0.001779 | AUC HT.Lmim (HT-1080): 0.1155 | AUC HT.NAD+ (HT-1080): 0.1699 | AUC HT.NMMA (HT-1080): 0.004831 | AUC HT.Nec-1 (HT-1080; HT-1080, modulator Nec-1): 0.02188 | AUC HT.Pepstatin (HT-1080; HT-1080, modulator Pepstatin): 0.000262 | AUC HT.SP600125 (HT-1080; HT-1080, modulator SP600125): 0.0008998 | AUC HT.TLCK (HT-1080; HT-1080, modulator TLCK): −0.006394 | AUC HT.U0126 (HT-1080; HT-1080, modulator U0126): 0.1926 | HT.atoc (AUC) (HT-1080): 0.01853 | HT.bCarotene (AUC) (HT-1080): 0.01182 | HT.deferox (AUC) (HT-1080): 0.3217 | HT.digoxin (AUC) (HT-1080): 0.142 | HT.trolox (AUC) (HT-1080): −0.01599 | HT.zVAD (AUC) (HT-1080): 0.1172 | AUC, modulator HT.3MA (HT-1080): 0.0299 | AUC, modulator HT.ALLN (HT-1080): 0.1869 | AUC, modulator BJ.3MA (BJeLR): −0.03566 | AUC, modulator BJ.ALLN (BJeLR): −0.03171 | AUC, modulator BJ.Boc D (BJeLR): −0.005016 | AUC, modulator BJ.CHX (BJeLR): 0.1955 | AUC, modulator BJ.Co2+ (BJeLR): 0.1806 | AUC, modulator BJ.DPQ (BJeLR): −0.03044 | AUC, modulator BJ.Gd3+ (BJeLR): 0.007944 | AUC, modulator BJ.LNAME (BJeLR): −0.00717 | AUC, modulator BJ.Lmin/NAD+ (BJeLR): 0.1721 | AUC, modulator BJ.Lmin (BJeLR): 0.06034 | AUC, modulator BJ.NAD+ (BJeLR): 0.1255 | AUC, modulator BJ.NMMA (BJeLR): −0.003354 | AUC, modulator BJ.Nec-1 (BJeLR): −0.05572 | AUC, modulator BJ.Pepstatin (BJeLR): −0.002521 | AUC, modulator BJ.TLCK (BJeLR): −0.01255 | AUC, modulator BJ.atoc (BJeLR): 0.04717 | AUC, modulator BJ.trolox (BJeLR): −0.03305 | AUC, modulator BJ.zVAD (BJeLR): 0.01856

O=[N+]([O-])c1ccc(O)c([N+](=O)[O-])c1
AUC, modulator HT.3MA (HT-1080): −0.1332 | AUC, modulator BJ.3MA (BJeLR): −0.008182 | AUC, modulator BJ.ALLN (BJeLR): −0.03838 | AUC, modulator BJ.Boc D (BJeLR): −0.01714 | AUC, modulator BJ.CHX (BJeLR): 0.189 | AUC, modulator BJ.Co2+ (BJeLR): −0.008316 | AUC, modulator BJ.DPQ (BJeLR): −0.03251 | AUC, modulator BJ.Gd3+ (BJeLR): −0.01413 | AUC, modulator BJ.LNAME (BJeLR): −0.0202 | AUC, modulator BJ.Lmin (BJeLR): −0.0205 | AUC, modulator BJ.NAD+ (BJeLR): 0.06986 | AUC, modulator BJ.NMMA (BJeLR): −0.02735 | AUC, modulator BJ.Nec-1 (BJeLR): −0.001955 | AUC, modulator BJ.Pepstatin (BJeLR): 0.05394 | AUC, modulator BJ.TLCK (BJeLR): −0.0426 | AUC, modulator BJ.atoc (BJeLR): 0.02318 | AUC, modulator BJ.trolox (BJeLR): 0.009957 | AUC, modulator BJ.zVAD (BJeLR): −0.0001198
